The source of these data is patent publication US8927579B2, “Male contraceptive” (priority 2007, dated 2015).

Series [1] concerns longitudinal muscle of human vas deferens. Nature of the series: New molecules against contractions to high K+ (120 mM), longitudinal muscle. Conditions: for IC50: Homo sapiens, contractions evoked by K+ (120 mM), preliminary data, mean, n=2-3, read-out: Functional inhibitory potencies (IC50 values), Longitudinal muscle; for relative effectiveness against longitudinal and circular muscle contractions: contractions evoked by high [K+]o; for Selectivity [(C/L)-1]: longitudinal muscle selectivity from IC50 values in circular and longitudinal muscle, K+ (120 mM). An excerpt:
(§1) Human vas deferens specimens were obtained after elective vasectomies of healthy fertile men. College ethical approval and the consent of patients were obtained. The specimens were placed in ice-cold Krebs' medium, dissected-free of connective tissue/blood vessels and cut longitudinally into strips (longitudinal muscle preparations; 5-8 mm long & 1 mm wide) or transversely into rings (circular muscle preparations; ˜3 mm in length). The longitudinal and circular muscle preparations were then set up for tension recording (resting tension 5-7 mN) in a Perspex chamber superfused at 2 ml per min with Krebs' medium (36° C.) composed of (mM): NaCl, 118.8; NaHCO3, 25; KCl, 4.7; CaCl2.2H2O, 2.5; KH2PO4, 1.2; MgSO4.7H2O, 1.2; glucose, 11.1; ascorbic acid 0.1 and continuously gassed with 95% O2 and 5% CO2. Contractile responses were recorded via a Harvard type force-displacement transducer. The analog signals were digitised using CIO-Das 16/Jr data acquisition software (Amplicon Liveline, Brighton, UK) and re-plotted on a microcomputer.
(§2) Tissues were equilibrated for 180 min in Krebs' medium containing inhibitors of extraneuronal and neuronal reuptake of noradrenaline, oestradiol (1 μM) and desipramine (0.1 μM) respectively, inhibitors of catechol-O-methyltransferase and monoamine oxidase, tropolone (10 μM) and iproniazid (10 μM) respectively and the β-adrenoceptor blocker, propranolol (1 μM). At the end of the equilibration period, the tissues were stimulated with noradrenaline (100 μM). […] After 40-45 min in this medium the tissues were stimulated with high [K^+]O (120 mM, Initial response). This was followed by exposure to cumulative concentrations of the new molecules {NIBA(1)XC1, NIBA(14)XN10, NIBA(6)XN3, NIBA(2)XC2, NIBA(53)XN16} or to Krebs' medium containing drug vehicles (time-matched controls). After contact times of 40-60 min at each drug concentration, the tissues were stimulated with high [K^+]o (120 mM). The resulting contractions were measured using computer software developed in-house to measure the total response (i.e. rhythmic activity plus tonic contraction). Contractions obtained in the presence of the new drug molecules were expressed as a percentage of the initial contraction evoked by high [K^+]o (120 mM) before exposure to the drugs.

In series [2] the test system is circular muscle of human vas deferens. Put plainly: New molecules against contractions to high K+ (120 mM), circular muscle. Conditions: contractions evoked by K+ (120 mM), preliminary data, mean, n=2-3, read-out: Functional inhibitory potencies (IC50 values), Circular muscle.
Description: as §1, §2

For series [3] the test system is unchanged. Put plainly: Inhibition at fixed concentration of contractions evoked by high K+ in the presence of FPL 64176, circular muscle. Conditions: drug 10 μM; for inhibition at 10 µM: Homo sapiens, [K+]o 120 mM in the presence of FPL 64176.
Description: as §1, with “5-10” for “5-8”, “3” for “˜3”, “Harvard-type” for “Harvard type”
(§3) Tissues were equilibrated for 180 min in Krebs' medium containing inhibitors of extraneuronal and neuronal reuptake of noradrenaline, oestradiol (1 μM) and desipramine (0.1 μM) respectively, inhibitors of catechol-O-methyltransferase and monoamine oxidase, tropolone (10 μM) and iproniazid (10 μM) respectively and the β-adrenoceptor blocker, propranolol (1 μM). At the end of the equilibration period, the tissues were stimulated with noradrenaline (100 μM). […] After a contact time of 30-40 min in this medium, different experimental protocols (described below) were adopted in order to • (a) Elucidate the contractile actions of L-type Ca^2+ agonists such as FPL 64176 or Bay K 8644. In these experiments, tissues were exposed to FPL 64176 (0.1-10 μM added cumulatively) or in separate experiments Bay K 8644 (0.1-10 μM added cumulatively). • (b) Investigate the effects of various diphenylalkylamines and conventional L-type Ca^2+ antagonists (methoxyverapamil or nifedipine) on contractions evoked by high concentrations of extracellular potassium (high [K^+]o) in the presence of L-type Ca^2+ agonists, FPL 64176 (1 μM) or Bay K 8644 (1 μM). In this protocol, tissues were stimulated with high [K^+]O (10, 30 and 120 mM at 10-15 min intervals) in normal Krebs' medium, then exposed to L-type Ca^2+ agonists for 20-30 min and subsequently stimulated with high [K^+]O (10, 30 and 120 mM) in the presence of the drugs. These provided the initial responses. Following this and in the continuous presence of the L-type Ca^2+ agonists, the tissues were exposed additionally to L-type Ca^2+ antagonists (conventional or diphenylalkylamines) or drug-free vehicle medium. After contact times of 25-50 min the tissues were stimulated, first with high [K^+]O (either 30 mM or 120 mM) in order to take account of the well-documented use-dependent action of the diphenylalkylamine Ca^2+ antagonists. Following recovery from the test contraction and after a further 30-40 min, the tissues were then stimulated with high [K^+]o (10, 30 and 120 mM). This protocol is illustrated in FIGS. 3 and 4. The resulting contractions were measured (see below) and expressed as a percentage of corresponding initial responses to high [K^+]o evoked in the presence of L-type Ca^2+ agonists (i.e. before exposure to L-type Ca^2+ antagonists). […]

For series [4] the test system is unchanged. Nature of the series: IC50 against contractions evoked by high K+ (120 mM) in the presence of FPL 64176, circular muscle rings. The conditions noted are these: Homo sapiens; contractions evoked by K+ (120 mM) in the presence of FPL 64176 (1 μM); means ± S.E.M.
Description: as §1, with “5-10” for “5-8”, “3” for “˜3”, “Harvard-type” for “Harvard type”
(§4) Tissues were equilibrated for 180 min in Krebs' medium containing inhibitors of extraneuronal and neuronal reuptake of noradrenaline, oestradiol (1 μM) and desipramine (0.1 μM) respectively, inhibitors of catechol-O-methyltransferase and monoamine oxidase, tropolone (10 μM) and iproniazid (10 μM) respectively and the β-adrenoceptor blocker, propranolol (1 μM). At the end of the equilibration period, the tissues were stimulated with noradrenaline (100 μM). […] After a contact time of 30-40 min in this medium, different experimental protocols (described below) were adopted in order to • (a) Elucidate the contractile actions of L-type Ca^2+ agonists such as FPL 64176 or Bay K 8644. In these experiments, tissues were exposed to FPL 64176 (0.1-10 μM added cumulatively) or in separate experiments Bay K 8644 (0.1-10 μM added cumulatively). • (b) Investigate the effects of various diphenylalkylamines and conventional L-type Ca^2+ antagonists (methoxyverapamil or nifedipine) on contractions evoked by high concentrations of extracellular potassium (high [K^+]o) in the presence of L-type Ca^2+ agonists, FPL 64176 (1 μM) or Bay K 8644 (1 μM). In this protocol, tissues were stimulated with high [K^+]O (10, 30 and 120 mM at 10-15 min intervals) in normal Krebs' medium, then exposed to L-type Ca^2+ agonists for 20-30 min and subsequently stimulated with high [K^+]O (10, 30 and 120 mM) in the presence of the drugs. These provided the initial responses. Following this and in the continuous presence of the L-type Ca^2+ agonists, the tissues were exposed additionally to L-type Ca^2+ antagonists (conventional or diphenylalkylamines) or drug-free vehicle medium. After contact times of 25-50 min the tissues were stimulated, first with high [K^+]O (either 30 mM or 120 mM) in order to take account of the well-documented use-dependent action of the diphenylalkylamine Ca^2+ antagonists. Following recovery from the test contraction and after a further 30-40 min, the tissues were then stimulated with high [K^+]o (10, 30 and 120 mM). This protocol is illustrated in FIGS. 3 and 4. The resulting contractions were measured (see below) and expressed as a percentage of corresponding initial responses to high [K^+]o evoked in the presence of L-type Ca^2+ agonists (i.e. before exposure to L-type Ca^2+ antagonists). […] Subsequent analysis (see below) was between contractions of drug-treated tissues and time-matched controls • (c) Determine the inhibitory potencies (IC50 values) of various diphenylalkylamines and phenothiazines and conventional L-type Ca^2+ antagonists (nifedipine and methoxyverapamil) against contractions evoked in longitudinal and circular muscle of human vas deferens by high [K^+]o (120 mM) in the presence of FPL 64176. In these experiments, tissues were stimulated with high [K^+]o (120 mM); sequentially in normal Krebs' medium and after 25-30 min exposure to the L-type Ca^2+ agonist, FPL 64176, (1 μM, Initial response). […]

Series [5] has as its system longitudinal muscle of human vas deferens. Put plainly: Inhibition at fixed concentration of contractions evoked by high K+ in the presence of FPL 64176, longitudinal muscle. The conditions noted are these: drug 10 μM; for inhibition at 10 µM: Homo sapiens, [K+]o 120 mM in the presence of FPL 64176.
Description: as §1, with “5-10” for “5-8”, “3” for “˜3”, “Harvard-type” for “Harvard type”
as §3, with “Following this and in the continuous presence of the L-type Ca^2+ agonists, the tissues were exposed additionally to L-type Ca^2+ antagonists (conventional or diphenylalkylamines) or drug-free vehicle medium. After contact times of 25-50 min the tissues were stimulated, first with high [K^+]O (either 30 mM or 120 mM) in order to take account of the well-documented use-dependent action of the diphenylalkylamine Ca^2+ antagonists. Following recovery from the test contraction and after a further 30-40 min, the tissues were then stimulated with high [K^+]o (10, 30 and 120 mM). This protocol is illustrated in FIGS. 3 and 4.” left out

Series [6] shares this test system. Nature of the series: IC50 against contractions evoked by high K+ (120 mM) in the presence of FPL 64176, longitudinal muscle strips. The conditions noted are these: Homo sapiens; contractions evoked by K+ (120 mM) in the presence of FPL 64176 (1 μM); means ± S.E.M.
Description: as §1, with “5-10” for “5-8”, “3” for “˜3”, “Harvard-type” for “Harvard type”
as §4

Series [7] concerns sperm emission in patients. The conditions noted are these: cited from earlier work.
Where [8] appears, read: [K+]o 30 mM in the presence of FPL 64176 (1.0 μM).

SMILES strings stand for the structures. Structures can show the parent of a compound that is named as a salt.

Consider `CC(NCCN(c1ccccc1)c1ccccc1)c1ccccc1` (stereo not shown) [NIBA(14)XN10], for which, in series [1], the IC50 amounted to 15 µM; the “relative effectiveness against longitudinal and circular muscle contractions” value is recorded as “more effective against longitudinal than circular muscle contractions”; the “Selectivity [(C/L)-1]” value is recorded as 5.1. In addition, the IC50 in series [2] was 91 µM.
The matching figures for `CC1CCCCN1CCC(c1ccccc1)c1ccccc1` (stereo not shown) [NIBA(2)XC2]: 3 µM, “more effective against longitudinal than circular muscle contractions”, 2.69 and 11.1 µM.
On to `O=c1[nH]c2ccccc2n1C1CCN(CCCC(c2ccc(F)cc2)c2ccc(F)cc2)CC1` [Pimozide, pimozide], for which the inhibition at 10 µM stood at 55% in series [3] and 71% in series [5]. The IC50 was 8.9 ± 3.1 µM in series [4] and 4.4 ± 0.6 µM in series [6].
As to `CN1CCCC1CCN(c1ccccc1)c1ccccc1` (stereo not shown) [NIBA(53)XN16], in series [1], the IC50 came out at 4.5 µM and the “Selectivity [(C/L)-1]” value stood at 1.4. Also, the IC50 in series [2] is 11 µM.
`CC(COc1ccccc1)N(CCCl)Cc1ccccc1` (stereo not shown) [PBZ, phenoxybenzamine]: in series [7] (clinical studies), the “effect on sperm emission (contraceptive side effect)” value is given as “reversibly inhibit sperm emission”; the “effects on libido, erection, orgasmic sensation, blood pressure, hormonal balance” value was “without effects on libido, penile erection, orgasmic sensation and more importantly blood pressure or hormonal balance”.
Regarding `CSc1ccc2c(c1)N(CCC1CCCCN1C)c1ccccc1S2` (stereo not shown) [Thioridazine, thioridazine hydrochloride], in series [7] (even at sub therapeutic doses), the “time to inhibition of sperm emission after drug administration” value was ≤ 24 h.
Take `Fc1ccc(C(c2ccc(F)cc2)N2CCN(C/C=C/c3ccccc3)CC2)cc1` [Flunarizine, flunarizine dihydrochloride]: the inhibition at 10 µM in series [3] and in series [5] was 40 to 44% throughout. The “inhibition of circular muscle contractions compared to time-matched controls” value in series [3] (setting [8]) was 20-30%. Moreover, the “inhibition of longitudinal muscle contractions compared to time-matched controls” value in series [5] (setting [8]) is recorded as 20-30%.
